Patent US12240862B2, “Inhibitors of peptidylarginine deiminases” (Gilead Sciences, Inc., priority 2020, dated 2025)

Target: T1, human PAD4 (Homo sapiens, UniProt Q9UM07)
T1 construct: human PAD4 (NM_012387), A2P663, was PCR amplified; His-SUMO (N, cleaved yes); made in house; host or cells: E. coli BL21(DE3)
Assay: In vitro PAD4 BAEE biochemical assay
Conditions: human PAD4, BAEE substrate; 5 nM PAD4, 2 mM calcium chloride, 3 mM BAEE; geometric mean of multiple experiments
Summary of the method: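 Ammonia generated from BAEE serves as the readout, measured by o-phthalaldehyde after EDTA termination. Final conditions: 5 nM human PAD4 (SUMO tag cleaved), 2 mM CaCl2, 3 mM BAEE, pH 7.6 MOPS buffer, 25 °C for 2 h following a 30-min compound preincubation.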

T1 sequence (Q9UM07 2-663): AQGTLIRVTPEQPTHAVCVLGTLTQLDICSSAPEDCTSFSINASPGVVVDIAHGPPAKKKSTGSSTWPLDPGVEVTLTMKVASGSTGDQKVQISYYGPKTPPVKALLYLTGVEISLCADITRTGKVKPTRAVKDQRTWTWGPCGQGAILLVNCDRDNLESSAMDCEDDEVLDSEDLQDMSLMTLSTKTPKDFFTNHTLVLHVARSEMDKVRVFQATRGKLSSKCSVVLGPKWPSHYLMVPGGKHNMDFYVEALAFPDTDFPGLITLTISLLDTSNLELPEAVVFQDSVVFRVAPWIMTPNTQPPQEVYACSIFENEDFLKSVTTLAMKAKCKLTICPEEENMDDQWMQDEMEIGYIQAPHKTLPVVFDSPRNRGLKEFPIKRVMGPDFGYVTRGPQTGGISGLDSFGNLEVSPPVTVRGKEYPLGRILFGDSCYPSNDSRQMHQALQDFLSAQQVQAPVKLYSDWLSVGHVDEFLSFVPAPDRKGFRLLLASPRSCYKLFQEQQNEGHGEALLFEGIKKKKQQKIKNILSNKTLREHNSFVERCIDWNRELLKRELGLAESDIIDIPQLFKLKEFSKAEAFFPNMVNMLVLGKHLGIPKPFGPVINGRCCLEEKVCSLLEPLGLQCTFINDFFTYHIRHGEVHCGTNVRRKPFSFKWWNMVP

Structure (SMILES)	IC50 [nM]
CS(=O)(=O)N(c1ccc2cc(-c3nc4cc(C(=O)N5C[C@H]6CC[C@@H]5[C@@H]6N)ccn4c3C3CC3)n(CC3CC3)c2n1)C(F)F [Example 396, N-[2-[7-[(1R,4R,7R)-7-amino-2-azabicyclo [2.2.1]heptane-2-carbonyl]-3-cyclopropyl-imidazo[1,2-a]pyridin-2-yl]-1-(cyclopropylmethyl)pyrrolo [2,3-b]pyridin-6-yl]-N-(difluoromethyl) methanesulfonamide]	194
COc1cc(C(=O)N2[C@@H]3CC[C@H]2[C@@H](N)[C@@H](OC)C3)cc2nc(-c3cc4ccc([C@@H](C)NC(=O)C56CC(F)(C5)C6)nc4n3CC3CC3)c(C)n12 [Example 182]	1360
COc1cc(C(=O)N2CCC[C@@H](N)C2)cc2nc(-c3cc4ccc(N(C(F)F)S(C)(=O)=O)nc4n3CC3CC3)c(C)n12 [Example 388, ~{N}-[2-[7-[(3~{R})-3-aminopiperidine-1-carbonyl]-5-methoxy-3-methylimidazo [1,2-a]pyridin-2-yl]-1-(cyclopropylmethyl)pyrrolo [2,3-b]pyridin-6-yl]-~{N}-(difluoromethyl) methanesulfonamide]	95.3
COc1cc(C(=O)N2[C@H]3CC[C@@H]2[C@H](N)C3)cc2nc(-c3cc4ccc([C@@H](C)NC(=O)C5CCC5(F)F)nc4n3CC3CC3)c(C)n12 (some centres unmarked) [Example 61, ~{N}-[(1~{R})-1-[2-[7-[(1~{R},2~{R},4~{S})-2-amino-7-azabicyclo [2.2.1]heptane-7-carbonyl]-5-methoxy-3-methylimidazo [1,2-a]pyridin-2-yl]-1-(cyclopropylmethyl)pyrrolo[2,3-b]pyridin-6-yl]ethyl]-2,2-difluorocyclobutane-1-carboxamide]	37.8
COc1cc(C(=O)N2[C@H]3CC[C@@H]2[C@H](N)C3)cc2nc(-c3cc4ccc([C@@H](C)NC(=O)CN=S(C)(C)=O)nc4n3CC3CC3)c(C)n12 [Example 96]	39
COc1cc(C(=O)N2C[C@H](N)CCN2C)cc2nc(-c3cc4ccc([C@@H](C)NC(=O)C56CC(F)(C5)C6)nc4n3CC3CC3)c(C)n12 [Example 615, N—((R)-1-(2-(7-((R)-5-amino-2-methylhexahydropyridazine-1-carbonyl)-5-methoxy-3-methylimidazo[1,2-a]pyridin-2-yl)-1-(cyclopropylmethyl)-1H-pyrrolo[2,3-b]pyridin-6-yl)ethyl)-3-fluorobicyclo[1.1.1]pentane-1-carboxamide]	69.6
COc1cc(C(=O)N2[C@H]3CC[C@@H]2[C@H](N)C3)cc2nc(-c3cc4ccc([C@@H](C)NC(=O)NC5CCOCC5)nc4n3CC3CC3)c(C)n12 [Example 214, 1-[(1~{R})-1-[2-[7-[(1~{R},2~{R},4~{S})-2-amino-7-azabicyclo[2.2.1]heptane-7-carbonyl]-5-methoxy-3-methylimidazo [1,2-a]pyridin-2-yl]-1-(cyclopropylmethyl)pyrrolo [2,3-b]pyridin-6-yl]ethyl]-3-(oxan-4-yl)urea]	45
COc1cc(C(=O)N2[C@H]3CC[C@@H]2[C@H](N)C3)cc2nc(-c3cc4ccc(C(C)CC(=O)NC(C)(C)C)nc4n3CC3CC3)c(C)n12 (some centres unmarked) [Example 521, 3-[2-[7-[(1~{R},2~{R}, 4~{S})-2-amino-7-azabicyclo[2.2.1]heptane-7-carbonyl]-5-methoxy-3-methylimidazo[1,2-a]pyridin-2-yl]-1-(cyclopropylmethyl)pyrrolo [2,3-b]pyridin-6-yl]-~{N}-~{tert}-butylbutanamide]	122

Further compounds by falling IC50, results first:

IC50 [nM]	Structure (SMILES)
31500	CCc1ccc2cc(-c3nc4cc(C(=O)N5CC6(CNCCO6)C5)cc(OC)n4c3C)n(CC3CC3)c2n1 [Example 595, [2-[1-(cyclopropylmethyl)-6-ethylpyrrolo[2,3-b]pyridin-2-yl]-5-methoxy-3-methylimidazo[1,2-a]pyridin-7-yl]-(5-oxa-2,8-diazaspiro[3.5]nonan-2-yl) methanone]
851	COc1cc(C(=O)N2[C@H]3CC[C@@H]2[C@H](N)C3)cc2nc(-c3cc4ccc(N(C(F)F)S(C)(=O)=O)nc4n3CC3CC3)c(CC(C)C)n12 [Example 429, ~{N}-[2-[7-[(1~{R},2~{R}, 4~{S})-2-amino-7-azabicyclo[2.2.1]heptane-7-carbonyl]-5-methoxy-3-(2-methylpropyl)imidazo[1,2-a]pyridin-2-yl]-1-(cyclopropylmethyl)pyrrolo [2,3-b]pyridin-6-yl]-~{N}-(difluoromethyl) methanesulfonamide]
361	COc1cc(C(=O)N2[C@H]3CC[C@@H]2[C@H](N)C3)cc2nc(-c3cc4ccc(N5c6ccccc6CS5(=O)=O)nc4n3CC3CC3)c(C)n12 [Example 467, [(1~{R},2~{R},4~{S})-2-amino-7-azabicyclo [2.2.1]heptan-7-yl]-[2-[1-(cyclopropylmethyl)-6-(2,2-dioxo-3~{H}-2,1-benzothiazol-1-yl)pyrrolo [2,3-b]pyridin-2-yl]-5-methoxy-3-methylimidazo [1,2-a]pyridin-7-yl] methanone]
185	COc1cc(C(=O)N2[C@H]3CC[C@@H]2[C@H](N)C3)cc2nc(-c3cc4ccc([C@@H](C)NC(=O)Nc5ccc(F)cc5F)nc4n3CC3CC3)c(C)n12 [Example 198, 1-[(1~{R})-1-[2-[7-[(1~{R},2~{R},4~{S})-2-amino-7-azabicyclo[2.2.1]heptane-7-carbonyl]-5-methoxy-3-methylimidazo [1,2-a]pyridin-2-yl]-1-(cyclopropylmethyl)pyrrolo [2,3-b]pyridin-6-yl]ethyl]-3-(2,4-difluorophenyl)urea]
179	CCc1ccc2cc(-c3nc4cc(C(=O)N5[C@H]6CC[C@@H]5[C@H](N)C6)cc(OC)n4c3C)n(Cc3cccnc3)c2n1 [Example 513, [(1~{R},2~{R},4~{S})-2-amino-7-azabicyclo [2.2.1]heptan-7-yl]-[2-[6-ethyl-1-(pyridin-3-ylmethyl)pyrrolo [2,3-b]pyridin-2-yl]-5-methoxy-3-methylimidazo[1,2-a]pyridin-7-yl]methanone]
144	COc1cc(C(=O)N2CC[C@@H](O)[C@@H](N)C2)cc2nc(-c3cc4ccc(N(C(F)F)S(C)(=O)=O)nc4n3CC3CC3)c(C)n12 [Example 348, ~{N}-[2-[7-[(3~{S}, 4~{R})-3-amino-4-hydroxypiperidine-1-carbonyl]-5-methoxy-3-methylimidazo [1,2-a]pyridin-2-yl]-1-(cyclopropylmethyl)pyrrolo[2,3-b]pyridin-6-yl]-~{N}-(difluoromethyl) methanesulfonamide]
134	COc1cc(C(=O)N2[C@H]3CC[C@@H]2[C@H](N)C3)cc2nc(-c3cc4ccc([C@@H](C)N5CCCC5)nc4n3CC3CC3)c(C)n12 [Example 272, [(1~{R},2~{R},4~{S})-2-amino-7-azabicyclo [2.2.1]heptan-7-yl]-[2-[1-(cyclopropylmethyl)-6-[(1~{R})-1-pyrrolidin-1-ylethyl]pyrrolo[2,3-b]pyridin-2-yl]-5-methoxy-3-methylimidazo[1,2-a]pyridin-7-yl]methanone]
117	COc1cc(C(=O)N2[C@H]3CC[C@@H]2[C@H](N)C3)cc2nc(-c3cc4ccc(N5[C@@H]6CC[C@@H](C6)CS5(=O)=O)nc4n3CC3CC3)c(C)n12 [Example 473, [(1~{R},2~{R},4~{S})-2-amino-7-azabicyclo [2.2.1]heptan-7-yl]-[2-[1-(cyclopropylmethyl)-6-[(1~ {R},5~{S})-3,3-dioxo-3$l^6-thia-2-azabicyclo[3.2.1]octan-2-yl]pyrrolo [2,3-b]pyridin-2-yl]-5-methoxy-3-methylimidazo [1,2-a]pyridin-7-yl] methanone]
78.9	CNC(=O)CC(C)c1ccc2cc(-c3nc4cc(C(=O)N5[C@H]6CC[C@@H]5[C@H](N)C6)cc(OC)n4c3C)n(CC3CC3)c2n1 (some centres unmarked) [Example 524, 3-[2-[7-[(1~{R},2~{R}, 4~{S})-2-amino-7-azabicyclo[2.2.1]heptane-7-carbonyl]-5-methoxy-3-methylimidazo[1,2-a]pyridin-2-yl]-1-(cyclopropylmethyl)pyrrolo [2,3-b]pyridin-6-yl]-~{N}-methylbutanamide]
68.5	COc1cc(C(=O)N2[C@H]3CC[C@@H]2[C@H](N)C3)cc2nc(-c3cc4ccc([C@@H](C)NC(=O)C5CCC(F)(F)CC5)nc4n3CC3CC3)c(C)n12 [Example 66, ~{N}-[(1~{R})-1-[2-[7-[(1~{R},2~{R},4~{S})-2-amino-7-azabicyclo [2.2.1]heptane-7-carbonyl]-5-methoxy-3-methylimidazo [1,2-a]pyridin-2-yl]-1-(cyclopropylmethyl)pyrrolo[2,3-b]pyridin-6-yl]ethyl]-4,4-difluorocyclohexane-1-carboxamide]
64.5	COc1cc(C(=O)N2[C@H]3CC[C@@H]2[C@H](N)C3)cc2nc(-c3cc4ccc([C@@H](C)NC(=O)[C@@H](C)OC)nc4n3CC3CC3)c(C)n12 [Example 40, (2~{R})-~{N}-[(1~{R})-1-[2-[7-[(1~{R},2~{R},4~{S})-2-amino-7-azabicyclo [2.2.1]heptane-7-carbonyl]-5-methoxy-3-methylimidazo [1,2-a]pyridin-2-yl]-1-(cyclopropylmethyl)pyrrolo[2,3-b]pyridin-6-yl]ethyl]-2-methoxypropanamide]
39.7	COc1cc(C(=O)N2[C@H]3CC[C@@H]2[C@H](N)C3)cc2nc(-c3cc4ccc([C@@H](C)NC(=O)N5CCO[C@H](C)C5)nc4n3CC3CC3)c(C)n12 [Example 210, (2~{R})-~{N}-[(1~{R})-1-[2-[7-[(1~{R},2~{R}, 4~{S})-2-amino-7-azabicyclo[2.2.1]heptane-7-carbonyl]-5-methoxy-3-methylimidazo [1,2-a]pyridin-2-yl]-1-(cyclopropylmethyl)pyrrolo [2,3-b]pyridin-6-yl]ethyl]-2-methylmorpholine-4-carboxamide]
